Measurements published in patent US20110257146A1, “Method of Treating Kcnq Related Disorders Using Organozinc Compounds” (The johns Hopkins University, priority 2006, published 2011).
“Also recorded” adds a separate entry of the source.

Key:
[1] = Mouse model of severe focal ischemia; settings: in vivo
KCNQ2 (W236L) = biological target: T1, KCNQ2 (W236L) (Rattus norvegicus, UniProt O88943, W236L); test: Whole-cell recording of KCNQ2 (W236L) mutant; format: cell-based; settings: 2.5 μM ZnPy, −30 mV or +50 mV
T1 construct: expressed in transfected cells
Protocol: FIG. 8. Differential modulatory sites on KCNQ channel by ZnPy and retigabine. A. Left Panel. Representative KCNQ2 current was recorded with intracellular pipet solution supplemented with 10 μM ZnPy. The overlapping external application of ZnPy is as shown. Right Panel. G-V curves at different indicated recording times (0 to 12 minutes) upon establishing stable seal are shown. The intracellular perfusion (with or without EGTA) was first calibrated by using compatible molecular weight dye. […] The levels of current potentiation at +50 mV and −30 mV were calculated by Idrug/Icontrol, and shown as indicated (n≧4, *p<0.001).
(§1) Mutagenesis—Starting from KCNQ cDNAs, the KCNQ2 point mutants were constructed by recombinant PCR and verified by sequencing.
Electrophysiological Recording—Standard whole-cell recording was used. Pipettes were pulled from borosilicate glass capillaries (TW150-4, World Precision Instruments, Sarasota, Fla.). When filled with the intracellular solution, the pipettes have resistances of […]. During the recording, constant perfusion of extracellular solution was maintained using a BPS perfusion system (ALA, Westbury, N.Y.). […] Current and voltage were recorded using an Axopatch-200A amplifier, filtered at 1 kHz and digitized using a DigiData 1322A with pClamp 9.2 software (Axon Instruments, Foster City, Calif.). […]

KCNQ2(A306T) = biological target: T2, KCNQ2(A306T) (Rattus norvegicus, UniProt O88943, A306T); test: Whole-cell recording of KCNQ2(A306T) mutant in CHO cells; format: cell-based
T2 construct: expressed in transfected cells; host or cells: CHO cells
Protocol: (§2) FIG. 9. KCNQ2 point mutants selectively lose ZnPy sensitivity. […] Each mutation site was indicated based on the predicted transmembrane regions. Dashed line indicates the potentiation level of wt KCNQ2 channel in the absence of ZnPy. […] C. Modeling of the S5-pore-S6 region of KCNQ2.
FIG. 11. ZnPy effects on BFNC mutant channels expressed in CHO cells. A. whole-cell currents of KCNQ2(R207W), KCNQ2(Y284C), and KCNQ2(A306T) were recorded in the absence (left) and presence (right) of 10 μM ZnPy, Vh was −80 mV, in 10 mV voltage steps from −70 mV to +50 mV. B. a histogram plotting potentiation effects on KCNQ2 wild type (wt) and BFNC mutants (R207W, Y284C and […]) by ZnPy (filled box) and retigabine (open box) (n≧4, * p<0.001, ** p<0.05).
as §1
(§3) Electrophysiological Recording—Standard whole-cell recording was used. Pipettes were pulled from borosilicate glass capillaries (TW150-4, World Precision Instruments, Sarasota, Fla.). When filled with the intracellular solution, the pipettes have resistances of […]. During the recording, constant perfusion of extracellular solution was maintained using a BPS perfusion system (ALA, Westbury, N.Y.). Pipette solution contained (mM): KCl 145, MgCl2 1, EGTA 5, HEPES 10, MgATP 5 (pH 7.3); extracellular solution contained (mM): NaCl 140, KCl 3, CaCl2 2, MgCl2 1.5, HEPES 10, glucose 10 (pH 7.4). Current and voltage were recorded using an Axopatch-200A amplifier, filtered at 1 kHz and digitized using a DigiData 1322A with pClamp 9.2 software (Axon Instruments, Foster City, Calif.). Series resistance compensation was also used and set to 60-80%.

KCNQ2 L275A = biological target: T3, KCNQ2 L275A (Rattus norvegicus, UniProt O88943, L275A); test: Whole-cell recording of KCNQ2 L275A mutant; format: cell-based
T3 construct: expressed in transfected cells
Excerpt: as §2, §1, §3

KCNQ4 = biological target: T4, KCNQ4 (Homo sapiens, UniProt P56696); test: Whole-cell voltage clamp of CHO cells expressing KCNQ4; format: cell-based; settings: 10 μM ZnPy, extracellular
T4 construct: expressed in transfected cells; host or cells: CHO cells
Protocol: Cell culture and transient transfection—Chinese Hamster Ovary (CHO) cells were grown in 50/50 DMEM/F12 (Cellgro) with 10% FBS (Gibco), 100 U/ml penicillin (Cellgro), 100 μg/ml streptomycin (Cellgro) and 2 mM L-glutamine (Gibco). At 24 hours before transfection, cells were split and plated in 60 mm dishes and were transfected with Lipofectamine2000™ reagent (Invitrogen) according to the manufacturer's instruction. At 24 hours after transfection, cells were split and re-plated onto coverslips coated with poly-L-lysine (Sigma). Plasmid expressing CD4 cDNA as a marker was cotransfected with the channel cDNAs of hKCNQ1 (from Dr. Michael Sanguinetti), hKCNQ4 (from Dr. Vitya Vardanyan), rKCNQ2, rKCNQ3, and hKCNQ5 (from Drs. David McKinnon, Mark Shapiro, and Thomas Jentsch). Prior to recording, anti-CD4 Dynabeads (Dynal. Biotech. Inc.) were added into the medium to allow for identification of the transfected cells. Stable lines expressing Kv2.1, hERG, and Kv4.2 were generated by standard protocols using pcDNA3.1 and maintained at complete medium supplemented with 500 μg/ml G418. […]
Electrophysiological Recording—Standard whole-cell recording was used. […] Current and voltage were recorded using an Axopatch-200A amplifier, filtered at 1 kHz and digitized using a DigiData 1322A with pClamp 9.2 software (Axon Instruments, Foster City, Calif.). […]

## S=c1ccccn1[O][Zn][O]n1ccccc1=S [ZnPy, Zinc Pyrithione]
[1]
  neuroprotection: significantly decreasing brain infarct volume and neurological deficit
KCNQ2 (W236L)
  sensitivity of mutant to compound: comparable sensitivity to KCNQ2 wild type; also recorded: fully effective in potentiating
KCNQ2(A306T); 10 μM ZnPy
  effectiveness of current increase: less effective
KCNQ2(A306T); ZnPy
  hyperpolarizing shift of V1/2: 24.1±3.1 mV
  potentiation in Gmax: little potentiation in Gmax
KCNQ2 L275A
  change in V1/2 caused by ZnPy: significant reduction on changes in V1/2
KCNQ4
  effect on channel activity: potentiated
